Measurements from ChEMBL document CHEMBL3813620, “Discovery of selective inhibitors of tyrosyl-DNA phosphodiesterase 2 by targeting the enzyme DNA-binding cleft” (Bioorg Med Chem Lett, 2016).
The source made the active and inactive calls. The rule behind the calls is not given here.

Legend:
[1] = target: T1, Tyrosyl-DNA phosphodiesterase 1 (Homo sapiens, UniProt Q9NUW8); assay: Inhibition of human recombinant TDP1 using 5'-[32P]-labeled N14Y as substrate after 15 mins by PAGE method
[2] = target: T2, Tyrosyl-DNA phosphodiesterase 2 (Mus musculus, UniProt Q9JJX7); assay: Inhibition of mouse recombinant TDP2 using alpha32P-cordycepin-3'-labeled TY19 as substrate after 15 mins by PAGE method
T2 sequence (Q9JJX7 whole entry): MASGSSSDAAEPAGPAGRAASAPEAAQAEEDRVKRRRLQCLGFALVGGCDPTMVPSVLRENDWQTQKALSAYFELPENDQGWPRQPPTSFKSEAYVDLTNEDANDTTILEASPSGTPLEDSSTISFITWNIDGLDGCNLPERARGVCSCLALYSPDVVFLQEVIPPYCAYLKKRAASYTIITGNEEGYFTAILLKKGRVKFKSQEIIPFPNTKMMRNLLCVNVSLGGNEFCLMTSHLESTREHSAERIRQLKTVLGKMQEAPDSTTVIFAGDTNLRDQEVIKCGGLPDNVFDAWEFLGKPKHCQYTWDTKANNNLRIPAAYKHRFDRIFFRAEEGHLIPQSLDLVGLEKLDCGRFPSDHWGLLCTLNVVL

[3] = target: T3, Tyrosyl-DNA phosphodiesterase 2 (Homo sapiens) (UniProt O95551); assay: Inhibition of endogenous human TDP2 within whole cell extracts from human TDP2-complemented DT40 chicken cells using TY19 DNA as substrate after 15 mins by spectrophotometric analysis
T3 sequence (whole entry): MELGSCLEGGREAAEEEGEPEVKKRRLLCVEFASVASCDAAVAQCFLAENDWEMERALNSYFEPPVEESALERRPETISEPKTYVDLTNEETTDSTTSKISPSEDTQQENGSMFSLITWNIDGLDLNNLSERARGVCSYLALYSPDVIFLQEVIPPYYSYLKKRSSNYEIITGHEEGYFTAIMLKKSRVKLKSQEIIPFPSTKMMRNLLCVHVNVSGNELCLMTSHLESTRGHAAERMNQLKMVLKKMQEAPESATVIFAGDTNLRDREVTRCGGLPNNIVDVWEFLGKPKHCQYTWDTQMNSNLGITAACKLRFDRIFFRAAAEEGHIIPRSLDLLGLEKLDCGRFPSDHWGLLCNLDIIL

[4] = target: T4, Tyrosyl-DNA phosphodiesterase 2 (Homo sapiens, UniProt O95551); assay: Inhibition of human recombinant TDP2 using alpha32P-cordycepin-3'-labeled TY19 as substrate after 15 mins by PAGE method
T4 sequence (O95551 whole entry): T3 sequence (whole entry)

[5] = target: T5, Tyrosyl-DNA phosphodiesterase 2 (Danio rerio, UniProt Q5XJA0); assay: Inhibition of zebra fish recombinant TDP2 using alpha32P-cordycepin-3'-labeled TY19 as substrate after 15 mins by PAGE method
T5 sequence (Q5XJA0 whole entry): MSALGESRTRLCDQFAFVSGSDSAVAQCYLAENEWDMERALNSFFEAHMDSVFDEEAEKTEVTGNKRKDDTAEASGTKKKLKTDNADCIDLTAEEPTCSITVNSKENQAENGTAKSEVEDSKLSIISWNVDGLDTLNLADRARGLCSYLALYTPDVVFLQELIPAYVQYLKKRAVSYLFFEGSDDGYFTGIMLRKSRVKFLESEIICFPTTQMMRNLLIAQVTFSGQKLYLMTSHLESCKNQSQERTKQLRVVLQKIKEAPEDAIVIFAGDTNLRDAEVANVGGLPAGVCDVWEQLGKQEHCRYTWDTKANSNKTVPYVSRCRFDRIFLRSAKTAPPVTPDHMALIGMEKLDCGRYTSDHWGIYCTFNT

[6] = target: T4, Tyrosyl-DNA phosphodiesterase 2; assay: Inhibition of human TDP2
[7] = target: T1, Tyrosyl-DNA phosphodiesterase 1; assay: Effect on human TDP1 up to 200 uM

T1 sequence (Q9NUW8 whole entry): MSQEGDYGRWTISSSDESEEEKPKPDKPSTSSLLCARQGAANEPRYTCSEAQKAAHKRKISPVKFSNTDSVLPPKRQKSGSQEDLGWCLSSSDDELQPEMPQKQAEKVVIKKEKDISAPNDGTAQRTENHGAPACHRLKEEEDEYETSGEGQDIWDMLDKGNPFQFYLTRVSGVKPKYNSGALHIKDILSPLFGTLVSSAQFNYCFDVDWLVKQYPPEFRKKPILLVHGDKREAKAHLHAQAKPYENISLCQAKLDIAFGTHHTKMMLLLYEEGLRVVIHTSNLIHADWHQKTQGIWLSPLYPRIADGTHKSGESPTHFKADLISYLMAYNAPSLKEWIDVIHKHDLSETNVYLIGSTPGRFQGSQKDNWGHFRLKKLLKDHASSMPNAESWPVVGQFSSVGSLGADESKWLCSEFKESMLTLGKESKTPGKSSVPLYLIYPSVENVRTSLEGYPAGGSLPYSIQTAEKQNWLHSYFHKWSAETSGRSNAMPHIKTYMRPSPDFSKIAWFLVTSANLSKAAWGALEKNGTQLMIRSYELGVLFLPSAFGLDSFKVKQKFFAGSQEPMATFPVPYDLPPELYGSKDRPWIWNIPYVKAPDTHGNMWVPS

N#CCCN(CCC#N)c1ccc(/C=C2\C(=O)N(c3ccc(S(=O)(=O)O)cc3)N=C2C(=O)O)cc1
IC50 [1]: > 111 µM | IC50 [2]: 15 µM | inhibition [3]: Active | IC50 [4]: 3.5 µM | IC50 [5]: 5.2 µM

COc1ccc(CC2C(=O)N(c3ccc([N+](=O)[O-])cc3)N=C2C(=O)O)cc1Oc1ccc(F)cc1 (stereo not given)
IC50 [6]: 12 µM | Activity [7]: inactive

O=C(NC(CSSCC(NC(=O)c1ccccc1)C(=O)O)C(=O)O)c1ccccc1 (stereo not given)
inhibition [3]: Active | IC50 [4]: 4.1 µM | IC50 [5]: 15 µM

O=C(Cc1ccccc1)NC(CSSCC(NC(=O)Cc1ccccc1)C(=O)O)C(=O)O (stereo not given)
IC50 [1]: > 111 µM | IC50 [2]: > 111 µM | inhibition [3]: Active | IC50 [4]: 9 µM | IC50 [5]: 20 µM
